In patent publication US20210030700A1, “COMPOSITION FOR PREVENTING AND TREATMENT OF SPINAL CORD INJURY” (NEUROBIOGEN CO.,LTD, priority 2018, published 2021):

How the values were obtained:
Type in all cases: in vivo, Sprague-Dawley rats
[1] = system: spinal cord injury model; experiment: Toluidine blue (TB) staining and TEM imaging, re-myelination of spinal cord injury site; conditions: spinal cord injury model treated with KDS2010
Experimental: (§1) The animal models of spinal cord injury herein used were adult male Sprague-Dawley rats weighing 180 to 200 g, and the rats were anesthetized by intraperitoneal injection of ketamine. Laminectomy was conducted on the T9 portion to expose the spinal cord, the spinal cord was compressed for 10 seconds using a dedicated forceps (self-closed forceps, Germany) to induce spinal cord injury, and then the muscles and skin were sutured.
Specifically, the number of […], the number of cavities and a g-ratio were measured through toluidine blue (TB) staining and TEM imaging.

[2] = system: spinal cord-injured rats and normal rats; experiment: Pain response evaluation using a dynamic plantar test
Experimental: as §1, with “sutured. […]” for “sutured.”
A motor function test was performed 10 times in total weekly for 10 weeks after spinal cord injury, and the recovery of hindlimb function in the animals was evaluated using the Basso-Beattie-Bresnahan (BBB) motor score. […] In the first recovery phase, the degree of the joint movement and whether or not the soles contact the floor was checked, in the second recovery phase, the degree of recovery of weighted gait was monitored, and in the final stage, the balance of the gait and the recovery of the tail were mainly observed. […] At this time, the force applied when the sole withdrawal occurred due to pain was measured.
A pain relief degree was measured using a pain response evaluation based on a dynamic plantar test after administration of KDS2010 to spinal-cord-injured rats and normal rats in the same manner as in Example 1-3 above.

[3] = system: spinal cord injury model; experiment: Immunofluorescence staining for macrophage marker CD68 and microglia marker Ibal; conditions: KDS2010-administered spinal cord injury model group
Experimental: as §1
When a spinal cord injury occurs, destroyed cells and cell clusters were observed inward from the injured site. These cells may cause an inflammatory reaction and interfere with regeneration from spinal cord injury. A test was conducted to investigate the effect of the drug KDS2010 on inflammatory reaction.
Specifically, the spinal cord injury model administered with KDS2010 was subjected to immunofluorescence staining to determine whether or not the cells were positive for the macrophage marker CD68 and the microglia marker Ibal.

[4] = system: spinal cord-injured rats and normal rats; experiment: EC staining of the injured area (T9), myelination of spinal cord tissue
Experimental: as §1
(§2) Of the 50 spinal cord injury animal models in total, 5 were a non-drug-administered control group (Normal), 5 were a drug-administered control group (Normal/KDS2010), 20 were a non-drug-administered group subjected to spinal cord injury (SCI), and 20 were a drug-administered group subjected to spinal cord injury (SCI/KDS2010). 2 weeks after induction of spinal cord injury, a mixture of the drug and drinking water was administered at a dose of 10 mg/kg.
For EC staining (Eriochrome (Solochrome) cyanine staining), spinal cord tissue was obtained at 10 weeks after spinal cord injury, fixed with 4% paraformaldehyde, and dehydrated to perform freeze embedding. EC staining was performed on the injured area (thoracic vertebrae #9, T9) in 5 rats for the control group, 10 rats for the spinal cord-injured non-drug-administered group and 10 rats for the spinal cord-injured drug-administered group.
The EC staining is a staining method that can compare the areas of tissue and the myelinated part between groups because the myelinated part is stained in blue, whereas other nuclei, nerves, and non-myelinated parts appear in white.
EC staining was conducted on the injured area (thoracic vertebrae #9, T9) of the non-drug-administered control group, the drug-administered control group, the spinal cord-injured non-drug-administered group and the spinal cord-injured drug-administered group, in the same manner as in Example 1-4, and the results of myelinated parts were quantified.

[5] = system: spinal cord injury model; experiment: BrdU immunofluorescence staining of spinal nerves, formation of new nerve cells; conditions: spinal cord injury model treated with KDS2010; BrdU 50 mg/kg/day i.p.
Experimental: as §1
A test to determine whether or not treatment with KDS2010 has an effect of inducing differentiation of new nerve cells was conducted in order to investigate the effect of spinal cord regeneration.
Specifically, BrdU was administered at a dose of 50 mg/kg/day to test animals by i.p. injection one week before scarification, and spinal nerves were subjected to immunofluorescence staining and then observed.

[6] = system: spinal cord-injured rats and normal rats; experiment: Basso-Beattie-Bresnahan (BBB) locomotor rating behavior test
Experimental: as §1, §2
A motor function test was performed 10 times in total weekly for 10 weeks after spinal cord injury, and the recovery of hindlimb function in the animals was evaluated using the Basso-Beattie-Bresnahan (BBB) motor score. The BBB score is divided into 21 points in total, and is broadly classified into 3 steps. In the first recovery phase, the degree of the joint movement and whether or not the soles contact the floor was checked, in the second recovery phase, the degree of recovery of weighted gait was monitored, and in the final stage, the balance of the gait and the recovery of the tail were mainly observed. The neuropathic pain response test upon spinal cord injury was conducted through the measurement of a change in mechanical paw withdrawal using a dynamic plantar aesthesiometer and was conducted weekly for 3 weeks after the injury causing response to the soles. This test was conducted by applying a force of 0 to 50 g to the sole of the paw of the hindlimb using a needle with a diameter of 0.5 mm for 20 seconds. At this time, the force applied when the sole withdrawal occurred due to pain was measured.
A behavior test was performed using a Basso-Beattie-Bresnahan (BBB) locomotor rating system after administration of KDS2010 to spinal-cord-injured rats and normal rats in the same manner as in Example 1-3 above. The result of the behavior test was expressed as a BBB score.

[7] = SCI/KDS2010 vs SCI, 10 weeks after injury
[8] = drug-administered control group (Control/KDS2010), 10 weeks

Compound: C[C@H](NCc1ccc(-c2ccc(C(F)(F)F)cc2)cc1)C(N)=O [KDS2010, (S)-2-(((4′-trifluoromethylbiphenyl-4-yl)methyl)amino)propanamide methanesulfonate]
- number of cavities [1]: rapidly decreased
- number of myelinated exons [1]: recovered to an almost normal value
- g-ratio ([1]; normal range 0.79±0.0005): within the normal range
- threshold value for pain compared to spinal cord-injured non-drug-administered group ([2]; SCI/KDS2010 vs SCI): significantly increased
- threshold value for pain ([2]; drug-administered control group (Normal/KDS2010), normal rats): high threshold value
- number of cells positive to CD68 [3]: significantly decreased
- number of cells positive to Ibal [3]: significantly decreased
- total myelinated area compared to spinal cord-injured non-drug-administered group [4, 7]: increased
- total tissue area compared to spinal cord-injured non-drug-administered group [4, 7]: increased
- proportion of the total myelinated area to the total tissue area [4, 8]: large
- total myelinated area [4, 8]: large
- total tissue area [4, 8]: large
- formation of new nerve cells [5]: exhibited newly formed nerve cells
- gait and behavioral function in BBB test ([6]; SCI/KDS2010, last week (10 weeks after injury)): balanced gait and restored behavioral function
- BBB score compared to spinal cord-injured group not administered with the drug ([6]; SCI/KDS2010 vs SCI): significantly improved
- BBB score ([6]; drug-administered control group (Normal/KDS2010), normal rats, 10 mg/kg in drinking water): 21 points
- BBB score ([6]; spinal cord-injured drug-administered group (SCI/KDS2010), 10 mg/kg in drinking water from 2 weeks after injury, starting at 5 weeks): ≥ 10 points
